Experimental data from US20200360391A1, “Medicinal Composition for Treating Intractable Heart Disease” (Osaka University, priority 2016, published 2020).
Like-named read-outs stand apart in the source and are kept apart here.

Columns and labels:
[1] = tested on: spontaneous dilated cardiomyopathy (J2N-k) hamster model; test: Spontaneous dilated cardiomyopathy (J2N-k) hamster model, 8-week administration from 20 weeks of age (Tests 1-3): echocardiography, body weight; settings: for Minimal effective dose (screening 2): mg/kg twice per day, oral preparation
Method: The doses of pharmaceutical products were determined based on the no-observed-adverse-effect levels in a long-term toxicity study using rats. δ-Glycan-deficient spontaneous dilated cardiomyopathy (J2N-k) male hamsters (Japan SLC, Inc.) were delivered at 18 weeks of age. After a 2-week quarantine/acclimation, echocardiography was performed.
Each of the pharmaceutical products (A to K and O) was individually administered twice daily (at an interval of 8 hours or more) by oral gavage, and echocardiography was performed after 4 and 8 weeks (before dissection). Differences from the value before the start of administration (at the time of grouping) (amount of change: Δ) in each group were examined, and the cardiac function (EF value, FS %, etc.) was compared with that in the vehicle group (Group 1). Moreover, the heart was removed […] after the start of administration, and electron microscopy and RNA protein measurement were performed. Specimens for immunopathology were also collected and evaluated.
Each pharmaceutical product was individually suspended in 0.5% CMC-Na (sodium carboxymethylcellulose; Wako Pure Chemical Industries, Ltd.) before use, and administered. […] To Group 1 (control), 0.5% CNC-Na (vehicle) was administered.
Each pharmaceutical product was individually suspended in 0.5% CMC-Na (sodium carboxymethylcellulose; Wako Pure Chemical Industries, Ltd.) before use, and administered. Test substance G was suspended in distilled water before use, and administered.
Reason the doses were set (assuming that the adult body weight was 60 kg, the same amounts as the maximum clinical doses were set) • 1) The clinical dose of C (ozagrel; OZ) was 200 mg twice per day. The dose was thus set to 3.3 mg/kg twice per day. • 2) The clinical dose of D (cilostazol; CS) was 100 mg twice per day. The dose was thus set to 1.7 mg/kg twice per day. • 3) The clinical dose of E (pirfenidone; PF) was 600 mg three times per day, i.e., 1800 mg/day in total. The dose was thus set to 15 mg/kg twice per day. • 4) The clinical dose of G (nintedanib sulfonate; OB) was 150 mg twice per day. The dose was thus set to 2.5 mg/kg twice per day. • 5) The clinical dose of P (carvedilol; CV) was 10 mg twice per day. The dose was thus set to 0.17 mg/kg twice per day. • 6) Preparation 2 (PLGA⋅MS preparation of camostat; B⋅MS): the clinical dose of active substance camostat was 200 mg three times per day, i.e., 600 mg/day in total; thus, intermittent subcutaneous administration at a daily dose of 10 mg/kg once every 4 weeks, twice in total was set. The dose was 1/28 of the total oral dose amount.
The dose volume in oral administration was 5 mL/kg (the amount of liquid to be administered to each animal was calculated based on the most recent body weight), and administered by oral gavage using a polypropylene disposable syringe and a rat stomach tube.
The administration period of each pharmaceutical product was 8 weeks.

rats [2] = settings: cited from earlier work; for No-observed-adverse-effect level: rats; for Dose at which toxic findings were observed: duration per compound
[3] = tested on: BLM-induced mouse pulmonary fibrosis model; settings: cited from earlier work
[4] = cited from earlier work
rats [5] = test: Repeated oral administration toxicity study in rats (dose-setting basis); settings: mg/kg twice per day, oral preparation
Description: The dose-setting basis for the doses of the test substances used in pharmacological tests is as described below.

[6] = tested on: rat coronary artery complete ischemia model; test: Model of ischemia (MI) by rat coronary artery complete ligation (Tests 1 and 2): echocardiography, body weight; settings: for value of change in E.F. compared with E.F. on Day 1 / value of change in F.S. compared with F.S. on Day 1: B-MS 100, C-MS 50, F-MS 30 mg/kg s.c. single injection
[7] = tested on: spontaneous dilated cardiomyopathy J2N-k baby hamsters; test: J2N-k baby hamsters (Test 4): administration alone or in combination, echocardiography, body weight; format: in vivo, hamster; settings: for % FS / EF (%) / value of change in E.F. compared with E.F. at 0 W / value of change in F.S. compared with F.S. at 0 W: Test 4, dose O 0.17, C 3.3, E 15, orally twice daily, mean ± S.D.
Method: δ-Glycan-deficient spontaneous dilated cardiomyopathy (J2N-k) male hamsters (Japan SLC, Inc.) were delivered at 4 weeks of age. After a 1-week quarantine/acclimation, echocardiography was performed. The hamsters were grouped by stratified random assignment based on the EF values and the body weights so that each administration group was equalized.
Each test substance was individually administered twice daily (at an interval of 8 hours or more) by oral gavage, and echocardiography was performed 4 and 8 weeks after the start of administration (before dissection). Differences from the value before the start of administration (at the time of grouping) (amount of change: A) in each group were examined, and the cardiac function (EF value, FS %, etc.) was compared with that in the vehicle group (Group 1).
The doses were set according to the dose-setting basis in Test 3, and similarly orally administered twice daily. Effects of administration of combinations of two or three of carvedilol, which is a β-blocker widely used clinically, and ozagrel and/or pirfenidone were examined.

[8] = Test 2, p.o. b.i.d., NOAEL-based dose
[9] = MI Test 2, 14 Day, B 150, G 5, I 30, C 10 mg/kg p.o. b.i.d., mean ± S.D.
[10] = MI Test 2, 29 Day, B 150, G 5, I 30, C 10 mg/kg p.o. b.i.d., mean ± S.D.
[11] = Test 1, p.o. b.i.d., NOAEL-based dose
[12] = MI Test 1, NOAEL doses, 7 Day, mean ± S.D.
[13] = MI Test 1, NOAEL doses, 14 Day, mean ± S.D.
[14] = MI Test 1, NOAEL doses, 29 Day, mean ± S.D.

Structure (SMILES): COC(=O)c1ccc2c(c1)NC(=O)/C2=C(\Nc1ccc(N(C)C(=O)CN2CCN(C)CC2)cc1)c1ccccc1 [Compound G, Nintedanib ethanesulfonate]
- Body weight 0 W ([1]; Test 2, at grouping): 121.6 g
- LVIDd 4 W ([1]; Test 2, p.o. b.i.d.): 6.9 mm
- LVIDd 8 W ([1]; Test 2, p.o. b.i.d.): 7.2 mm
- LVIDs 4 W ([1]; Test 2, p.o. b.i.d.): 5.7 ± mm
- LVIDs 8 W ([1]; Test 2, p.o. b.i.d.): 6.1 ± mm
- % FS 4 W [1, 8]: significantly higher
- % FS value of change at 4 W compared with 0 W [1, 8]: significantly higher
- Body weight 1 W [1, 8]: 121.3 g
- Body weight 2 W [1, 8]: 122.0 g
- Body weight 3 W [1, 8]: 123.8 g
- Body weight 4 W [1, 8]: 126.1 g
- Body weight 5 W [1, 8]: 127.1 g
- Body weight 7 W [1, 8]: 129.2 g
- Body weight 8 W [1, 8]: 128.9 g
- EF 4 W [1, 8]: significantly higher
- LVIDs 8 W ([1]; Test 2, p.o. b.i.d., listed as nintedanib): significantly lower
- Cardiac function (EF, FS %) actual measured value and/or amount of change compared with control, 8 W value ([1]; Test 3, clinical dose): significant cardiac function improvement effect
- Minimal effective dose (screening 2) [1]: 2.5 mg/kg
- No-observed-adverse-effect level (rats [2]; 6 months): 5 mg/kg
- Dose at which toxic findings were observed (rats [2]; repeated administration in rats): 20 mg/kg/day
- Inhibitory effect on pulmonary fibrosis, 60 mg/kg versus 30 mg/kg ([3]; prophylactic administration Day 0 to Day 14, once daily oral gavage): slightly higher inhibitory effect on pulmonary fibrosis
- Dose with apparent effect on both inflammation and fibrosis ([3]; therapeutic administration Day 7 to Day 21, once daily oral gavage): 60 mg/kg
- Abdominal pain cases ([4]; human, in vivo): 10.2%
- Diarrhea cases ([4]; human, in vivo): 53.6%
- Elevated AST (GOT) and/or ALT (GPT) / liver enzyme cases ([4]; human, in vivo): 10.5%
- Nausea cases (cilostazol: nausea/vomiting) ([4]; human, in vivo): 19.1%
- Maximum no-observed-adverse-effect level (screening 1) (rats [5]): 5 mg/kg
- EF actual measured value and/or amount of change compared with control ([6]; MI Test 2, Day 14 and Day 29): significantly higher
- Values of cardiac function (EF, FS %) compared with control ([6]; MI Test 2, oral b.i.d. 4 weeks or single subcutaneous administration): significantly higher
- Body weight ([6]; MI Test 2, 1 Day, B 150, G 5, I 30, C 10 mg/kg p.o. b.i.d., B MS 100, C MS 50, I MS 30 mg/kg s.c. single injection, mean): 240.9 g
- Body weight ([6]; MI Test 2, 7 Day, B 150, G 5, I 30, C 10 mg/kg p.o. b.i.d., B MS 100, C MS 50, I MS 30 mg/kg s.c. single injection, mean): 248.1 g
- Body weight ([6]; MI Test 2, 14 Day, B 150, G 5, I 30, C 10 mg/kg p.o. b.i.d., B MS 100, C MS 50, I MS 30 mg/kg s.c. single injection, mean): 273.9 g
- value of change in E.F. compared with E.F. on Day 1 [6, 9]: <−6.2 ± 1.8> %
- value of change in F.S. compared with F.S. on Day 1 [6, 9]: <−3.4 ± 1.1> %
- Body weight ([6]; MI Test 2, 21 Day, B 150, G 5, I 30, C 10 mg/kg p.o. b.i.d., B MS 100, C MS 50, I MS 30 mg/kg s.c. single injection, mean): 290.5 g
- Body weight ([6]; MI Test 2, 29 Day, B 150, G 5, I 30, C 10 mg/kg p.o. b.i.d., B MS 100, C MS 50, I MS 30 mg/kg s.c. single injection, mean): 311.0 g
- value of change in E.F. compared with E.F. on Day 1 [6, 10]: <−11.0 ± 2.7> %
- value of change in F.S. compared with F.S. on Day 1 [6, 10]: <−5.8 ± 3.6> %

Structure (SMILES): Cc1ccc(=O)n(-c2ccccc2)c1 [Compound E, Pirfenidone]
- Body weight 0 W ([1]; Test 1, at grouping): 116.1 g
- LVIDd 4 W ([1]; Test 1, p.o. b.i.d.): 6.9 mm
- LVIDd 8 W ([1]; Test 1, p.o. b.i.d.): 7.3 mm
- LVIDs 4 W ([1]; Test 1, p.o. b.i.d.): 5.7 mm
- LVIDs 8 W ([1]; Test 1, p.o. b.i.d.): 6.1 mm
- Body weight 1 W [1, 11]: 116.3 g
- Body weight 2 W [1, 11]: 118.3 g
- Body weight 3 W [1, 11]: 119.5 g
- Body weight 4 W [1, 11]: 121.4 g
- LVIDs 8 W ([1]; Test 1, p.o. b.i.d., listed as pirfenidone): significantly lower
- Cardiac function (EF, FS %) actual measured value and/or amount of change compared with control, 8 W value ([1]; Test 3, clinical dose): significant cardiac function improvement effect
- Cardiac function (EF, FS %) actual measured value or change rate compared with control, 4 W value ([1]; Test 3, clinical dose): significant cardiac function improvement effect
- Cardiac function improvement effect ([1]; Test 3, clinical dose, summary): cardiac function improvement effect was observed
- Minimal effective dose (screening 2) [1]: 15 mg/kg
- Body weight 0 W ([7]; Test 4, at grouping): 71.7 g
- % FS ([7]; 0 W (start of administration)): 39.0 ± 3.0%
- EF (%) ([7]; 0 W (start of administration)): 77.1 ± 3.4%
- % FS ([7]; 4 W): 34.1 ± 1.9%
- EF (%) ([7]; 4 W): 71.3 ± 2.4%
- value of change in E.F. compared with E.F. at 0 W ([7]; 4 W): <−5.8 ± 1.9> %
- value of change in F.S. compared with F.S. at 0 W ([7]; 4 W): <−4.8 ± 1.7> %
- % FS ([7]; 8 W): 29.7 ± 1.8%
- EF (%) ([7]; 8 W): 65.2 ± 2.6%
- value of change in E.F. compared with E.F. at 0 W ([7]; 8 W): <−11.9 ± 2.8> %
- value of change in F.S. compared with F.S. at 0 W ([7]; 8 W): <−9.2 ± 2.4> %
- No-observed-adverse-effect level (rats [2]; 1 month): 100 mg/kg
- Dose at which toxic findings were observed (rats [2]; repeated oral administration in rats): ≥ 100 mg/kg
- Minimal effective dose for antifibrosis ([3]; BLM-induced mouse pulmonary fibrosis model): 30 mg/kg/day
- Abdominal / stomach / gastric discomfort cases ([4]; human, in vivo): 14.0%
- Abnormal fluctuation in laboratory test values ([4]; human, in vivo): 45.3%
- Anorexia cases ([4]; human, in vivo): 23.0%
- Light-hypersensitivity cases ([4]; human, in vivo): 51.7%
- Nausea cases (cilostazol: nausea/vomiting) ([4]; human, in vivo): 12.1%
- γ-GTP elevation cases ([4]; human, in vivo): 20.0%
- Cases with side effects (including laboratory test value abnormality) ([4]; share of cases evaluated for safety): 87.9%
- Maximum no-observed-adverse-effect level (screening 1) (rats [5]): 50 mg/kg
- Action on left ventricular systolic function ([6]; MI Test 1, 28-day repeated oral administration b.i.d., NOAEL-based doses): suppression action on the deterioration of left ventricular systolic function
- Body weight ([6]; MI Test 1, NOAEL doses, 1 Day (grouping), mean ± S.D.): 232.0 ± 3.9 g
- % FS: value of change compared with the value on Day 1 [6, 12]: 0%
- Body weight [6, 12]: 236.7 ± 5.3 g
- EF: value of change compared with the value on Day 1 [6, 12]: -1%
- % FS: value of change compared with the value on Day 1 [6, 13]: -2%
- Body weight [6, 13]: 257.7 ± 10.1 g
- EF: value of change compared with the value on Day 1 [6, 13]: -4%
- Body weight ([6]; MI Test 1, NOAEL doses, 21 Day, mean ± S.D.): 272.4 ± 10.5 g
- % FS: value of change compared with the value on Day 1 [6, 14]: -4%
- Body weight [6, 14]: 287.5 ± 16.2 g
- EF: value of change compared with the value on Day 1 [6, 14]: -8%
